No end group written: not given here.
What was measured:
PP peptide = experiment: Immunization of rabbit with noncoupled PP peptide, anti-PP IgG ELISA; format: in vivo
Description: To test the immunogenicity of the PP peptide alone, immunization with the PP peptide in the rabbit model was carried out, with incomplete Freund's adjuvant being added to each injection.
More precisely, two injections of 400 μg of PP peptide with incomplete Freund's adjuvant (v/v) were administered in a total volume of 2 ml.
The two injections were administered subcutaneously, two weeks apart. The rabbit serum was recovered two weeks after the second injection. The anti-PP antibodies were titered on this serum.
The anti-PP antibodies were titered in the rabbit by the ELISA technique described above, with a biotinylated anti-rabbit antiglobulin (BioAtlantic) at 1/3000 and peroxidase-coupled streptavidin as visualizing agent (RPN1231, Amersham pharmacia biotech)
The results of the anti-PP IgG antibody response, expressed as corrected OD (OD at D28, therefore after the second immunization, minus the OD at D0), of the immunization trial with the PP peptide are given in FIG. 3.

[1] = test system: Leptospira interrogans sl serovar canicola; experiment: Trial 1: gerbils immunized with PP-KLH, 10^−2.5 canicola challenge; format: in vivo, gerbil; settings: Experiment 1, survival
Description: An immunization/challenge protocol was carried out in order to evaluate the protection that can be provided by the PP peptide (SEQ ID No. 1) coupled to the KLH protein.
This construct is administered subcutaneously without adjuvant, with PBS as a negative control (batch 2).
Batch 1: 10 gerbils, 2 injections of 30 μg of PP-KLH in 300 μl, subcutaneously.
Batch 2: 10 gerbils, 2 injections of PBS in 300 μl.
The two injections in a volume of 300 μl were administered subcutaneously, two weeks apart. A challenge by intraperitoneal injection of 0.5 ml of a canicola culture with a titer of 90 to 100 TU (turbidimetry) diluted to 10^−2.5 was administered two weeks after the second injection. • Antigenic response: Monitoring by ELISA of the immune response of the gerbils against the PP peptide

[2] = test system: Leptospira interrogans sl serovar canicola; experiment: Trial 2: gerbils immunized with PP-KLH or PP, 10^−2 canicola challenge; format: in vivo, gerbil; parameters: Mortality rate / Survival rate: unit not given here
Description: An immunization/challenge trial was carried out in order to evaluate the protection that can be provided by the PP peptide (SEQ ID No. 1) coupled or not coupled to the KLH protein.
This construct is administered subcutaneously without adjuvant, and PBS is administered by the same route as the negative control (batch 3). • Batch 1: 12 gerbils, 2 injections of 30 μg of PP-KLH in 300 μl. • Batch 2: 12 gerbils, 2 injections of 30 μg of PP in 300 μl. • Batch 3: 15 gerbils, 2 injections of PBS in 300 A1.
The two injections in a volume of 300 μl were administered subcutaneously, two weeks apart. A challenge by intraperitoneal injection of 0.5 ml of a serovar canicola leptospiral culture with a titer of 90 to 100 TU (turbidimetry) diluted to 10^−2 was administered three weeks after the second injection.

KAKPVQKLDDDDDGDDTYKEERHNK [PP peptide, 25 amino acid peptide, fragment aa153-aa177 of the PPL protein of Leptospira interrogans]
serum dilution at which response against the PP peptide can still be detected (PP peptide; 2 s.c. injections of 400 μg with incomplete Freund's adjuvant, D28): ≥ 102 400
immunogenicity (PP peptide; peptide alone): very immunogenic
p, log-rank test versus control [1]: < 0.07
Mortality rate ([2]; 10^−2 canicola challenge): 33.3
Survival rate ([2]; 10^−2 canicola challenge): 66.7
mortality in the group (dead/number) ([2]; 10^−2 canicola challenge): 4/12
gerbils at challenge ([2]; 10^−2 canicola challenge, D0): 12
mortality of gerbils (dead/number) ([2]; 10^−2 canicola challenge, D4): 0/12
mortality of gerbils (dead/number) ([2]; 10^−2 canicola challenge, D5): 0/12
mortality of gerbils (dead/number) ([2]; 10^−2 canicola challenge, D6): 0/12
mortality of gerbils (dead/number) ([2]; 10^−2 canicola challenge, D7): 0/12
mortality of gerbils (dead/number) ([2]; 10^−2 canicola challenge, D8): 2/12
mortality of gerbils (dead/number) ([2]; 10^−2 canicola challenge, D9): 2/10
mortality of gerbils (dead/number) ([2]; 10^−2 canicola challenge, D10): 0/8
mortality of gerbils (dead/number) ([2]; 10^−2 canicola challenge, D11): 0/8
mortality of gerbils (dead/number) ([2]; 10^−2 canicola challenge, D12): 0/8
mortality of gerbils (dead/number) ([2]; 10^−2 canicola challenge, D13): 0/8
mortality of gerbils (dead/number) ([2]; 10^−2 canicola challenge, D14): 0/8
mortality of gerbils (dead/number) ([2]; 10^−2 canicola challenge, D15): 0/8
mortality of gerbils (dead/number) ([2]; 10^−2 canicola challenge, D16): 0/8
mortality of gerbils (dead/number) ([2]; 10^−2 canicola challenge, D17): 0/8
mortality of gerbils (dead/number) ([2]; 10^−2 canicola challenge, D28): 0/8
p, log-rank test versus control ([2]; Experiment 2, survival): < 0.02
χ^2, log-rank test versus control ([2]; Experiment 2, survival): 5.64
p, log-rank test versus control ([2]; Experiment 2, survival, listed as PP): <2.10^−2

From patent US20070197432A1, “Peptides for preventing, diagnosing and treating animal and/or human leptospirosis” (priority 2002, published 2007)
